Measured values taken from patent publication US12414974B2, “Materials and methods for treating cancer” (priority 2017, dated 2025).

System: GBM39 cells
Test: MV growth kinetics (virus production, titration on Vero cells)
Format: cell-based, human
Procedure: MV strains and virus propagation. Generation and characterization of MV strains expressing human iodide symporter (MV-NIS), human carcinoembryonic antigen (MV-CEA) and green fluorescent protein (MV-GFP) has been described elsewhere (see, e.g., Dingli et al. 2004 Blood 103:1641-1646; Peng et al. 2002 Cancer Res 62:4656-4662; Duprex et al. 1999 J Virol 73:9568-9575). Viruses were propagated on Vero cells and viral stocks were prepared by repeated freezing-thawing and stored frozen at −80° C. MV titers were determined in tissue culture infectious doses 50% (TCID50) per ml by titration on Vero cells described elsewhere (see, e.g., Iankov et al. 2009 Mol Ther 17:1395-1403). High grade purified viral stocks from supernatant released viruses were prepared as described elsewhere (see, e.g., Langfield et al. 2011 Methods Mol Biol 737:345-366).
MV growth kinetics. Growth kinetics of MV in primary GBM cells was determined by titration on Vero cells for the cell-associated virus at different time points post infection with MV-NIS. Briefly, the 4×10^5 cells were inoculated at a MOI of 0.1 with MV-NIS and incubated in 6-well cell culture plates (Falcon). […] Wells positive for syncytia were counted at 72 hours and virus titers were calculated as described above. […]

N#CC[C@H](C1CCCC1)n1cc(-c2ncnc3[nH]ccc23)cn1 [Jakafi, Ruxolitinib]
increase of MV-NIS virus production vs control (GBM39, 3 μM for 48 hours prior to infection, MV-NIS MOI 0.1, 96 hours): ~1000 fold
time of addition still sufficient to restore MV production (GBM39, 3 μM, MV MOI 0.1, virus production 48 hours post-infection): up to 12 hours post-infection
